Counter-ions that a name gives are not always drawn.
Test system: NIH-3T3/Gli reporter cells
Assay: Evaluation of compound: Shh-N-induced luciferase activity in NIH-3T3/Gli reporter cells (Smo inhibitory action)
Assay type: cell-based
Details: 48 hr; for inhibition at 1 µM: NIH3T3, 1 μM compound, mouse Shh-N end fragment supernatant, read-out: inhibition rate (%) at 1 μM; for IC50: NIH3T3, mouse Shh-N end fragment supernatant, read-out: IC50 value (compound concentration necessary for achieving 50% of the maximum value of inhibition rate)
Description: HEK293 cells were grown in D-MEM medium (Invitrogen) containing 10% fetal bovine serum in a 10 cm dish and pcDNA3.1/mShh-N was introduced into the cells using FuGENE6 (Roche Applied Science). Thereafter, the HEK293 cells were cultured in a carbon dioxide gas incubator at 37° C. for 24 hours, and the medium was exchanged with D-MEM medium (Invitrogen) containing 2% fetal bovine serum. After culturing for 48 hr, a culture supernatant containing recombinant type mouse Shh-N end fragment was obtained by filtration using a filter ([…]).
Using D-MEM (Invitrogen) containing 10% fetal bovine serum, expression plasmid pcDNA3.1 and Gli reporter plasmid (pGL3/δ-cry promoter, 8×Gli binding site) produced by the method of Experimental Example 1 were introduced into NIH-3T3 cells grown in a 10 cm dish by the use of FuGENE6 (Roche Applied Science).
After culture for 24 hr, the cells were recovered, suspended in D-MEM medium containing 10% fetal bovine serum and supplemented with Geneticin (Life Technologies Oriental, Inc.) to a final concentration of 500 μg/ml, diluted to 10^4 cells/ml, plated on a 96 well plate, and cultured in a carbon dioxide gas incubator at 37° C. to give Geneticin resistant transformed cell line.
The obtained transformed cell line was cultured in a 96 well plate, mouse Shh-N end fragment obtained in Experimental Example 3 was added, and NIH-3T3/Gli reporter cell, which is a cell line capable of induction of luciferase expression, was selected.
NIH-3T3/Gli reporter cells cultured in D-MEM (Invitrogen) containing 10% fetal bovine serum were plated in a 96 well white plate at 1×10^4 cells/well, and cultured overnight in a carbon dioxide gas incubator at 37° C. The medium was removed, a compound (50 μl) and culture supernatant of mouse Shh-N end fragment-expressing HEK293 (D-MEM medium containing 2% fetal bovine serum, 50 μl) were added, and the cells were cultured for 48 hr in a carbon dioxide gas incubator at 37° C. Bright-Glo (Promega, 50 μl) was added, and the mixture was stirred, after which luciferase activity was measured by EnVision (PerkinElmer). The inhibition rate was calculated based on the luciferase activity of the control without addition of the compound as 100. The concentration of the compound and the inhibition rate were analyzed by PRISM3.00 (software of GraphPad), based on which the IC50 value (compound concentration necessary for achieving 50% of the maximum value of inhibition rate) of the compound was calculated.

Row | SMILES | inhibition at 1 µM | IC50
1 | COc1c(C(=O)NCC2CCCN(CCO)C2)n(C)c2c1c(=O)n(CC(=O)c1ccccc1)c1ccccc21 (centres unmarked) [Example 102, N-{[1-(2-hydroxyethyl)piperidin-3-yl]methyl}-3-methoxy-1-methyl-4-oxo-5-(2-oxo-2-phenylethyl)-4,5-dihydro-1H-pyrrolo[3,2-c]quinoline-2-carboxamide] | 80% | ≤ 1000 nM
2 | COc1c(C(=O)NCC(C)(C)CO)n(C)c2c1c(=O)n(CC(=O)c1ccccc1)c1ccccc21 [Example 109, N-(3-hydroxy-2,2-dimethylpropyl)-3-methoxy-1-methyl-4-oxo-5-(2-oxo-2-phenylethyl)-4,5-dihydro-1H-pyrrolo[3,2-c]quinoline-2-carboxamide] | 100% | ≤ 1000 nM
3 | COc1c(C(=O)N(C)CCNC(C)C)sc2c1c(=O)n(CC(=O)c1ccccc1)c1ccccc21 [Example 115, 3-methoxy-N-methyl-N-{2-[(1-methylethyl)amino]ethyl}-4-oxo-5-(2-oxo-2-phenylethyl)-4,5-dihydrothieno[3,2-c]quinoline-2-carboxamide hydrochloride] | 100% | ≤ 1000 nM
4 | COc1c(C(=O)N[C@H]2CC[C@H](O)CC2)n(C)c2c1c(=O)n(CC(=O)c1ccccc1)c1ccccc21 [Example 118, N-(trans-4-hydroxycyclohexyl)-3-methoxy-1-methyl-4-oxo-5-(2-oxo-2-phenylethyl)-4,5-dihydro-1H-pyrrolo[3,2-c]quinoline-2-carboxamide] | 100% | 
5 | CCc1cc2c(c(OC)c(C(=O)NC3CCN(C(=O)CO)CC3)n2C)c(=O)n1CC(=O)c1ccccc1 [Example 131, 6-ethyl-N-[1-(hydroxyacetyl)piperidin-4-yl]-3-methoxy-1-methyl-4-oxo-5-(2-oxo-2-phenylethyl)-4,5-dihydro-1H-pyrrolo[3,2-c]pyridine-2-carboxamide] | 100% | 
6 | CCOc1c(C(=O)NCC(C)(C)O)n(C)c2cc(C)n(CC(=O)c3ccccc3)c(=O)c12 [Example 132, 3-ethoxy-N-(2-hydroxy-2-methylpropyl)-1,6-dimethyl-4-oxo-5-(2-oxo-2-phenylethyl)-4,5-dihydro-1H-pyrrolo[3,2-c]pyridine-2-carboxamide] | 100% | 
7 | COc1c(C(=O)NC2CCN(c3ccncc3)CC2)n(C)c2cc(C)n(CC(=O)c3ccccc3)c(=O)c12 [Example 135, 3-methoxy-1,6-dimethyl-4-oxo-5-(2-oxo-2-phenylethyl)-N-(1-pyridin-4-ylpiperidin-4-yl)-4,5-dihydro-1H-pyrrolo[3,2-c]pyridine-2-carboxamide] | 100% | 
8 | CCOc1c(C(=O)NC2CCN(C(=O)CO)CC2)n(C)c2cc(C)n(CC(=O)c3ccccc3)c(=O)c12 [Example 136, 3-ethoxy-N-[1-(hydroxyacetyl)piperidin-4-yl]-1,6-dimethyl-4-oxo-5-(2-oxo-2-phenylethyl)-4,5-dihydro-1H-pyrrolo[3,2-c]pyridine-2-carboxamide] | 100% | 
9 | CCCOc1c(C(=O)NC2CCN(C(=O)CO)CC2)n(C)c2cc(C)n(CC(=O)c3ccccc3)c(=O)c12 [Example 137, N-[1-(hydroxyacetyl)piperidin-4-yl]-1,6-dimethyl-4-oxo-5-(2-oxo-2-phenylethyl)-3-propoxy-4,5-dihydro-1H-pyrrolo[3,2-c]pyridine-2-carboxamide] | 100% | 
10 | CCOc1c(C(=O)NC2CCN(CCO)CC2)n(C)c2cc(C)n(CC(=O)c3ccccc3)c(=O)c12 [Example 138, 3-ethoxy-N-[1-(2-hydroxyethyl)piperidin-4-yl]-1,6-dimethyl-4-oxo-5-(2-oxo-2-phenylethyl)-4,5-dihydro-1H-pyrrolo[3,2-c]pyridine-2-carboxamide] | 100% | 
11 | CCCc1cc2c(c(OCC)c(C(=O)NC3CCN(C(=O)CO)CC3)n2C)c(=O)n1CC(=O)c1ccccc1 [Example 141, 3-ethoxy-N-[1-(hydroxyacetyl)piperidin-4-yl]-1-methyl-4-oxo-5-(2-oxo-2-phenylethyl)-6-propyl-4,5-dihydro-1H-pyrrolo[3,2-c]pyridine-2-carboxamide] | 100% | 

Source: patent publication US8217176B2, “Fused heterocyclic derivative and use thereof” (Takeda Pharmaceutical Company Limited, priority 2008, dated 2012)
